Results on one substance are retold here after patent US12653776B2, “Methods of treatment of cancer by continuous infusion of coenzyme Q10” (priority 2013, dated 2026).

The test system of data set [1] is acute erythro-leukemia (K562) cells. Description: Acute erythroleukemia (K562) mouse model, survival. The format is in vivo, mice. How it is done: Human acute erythro-leukemia (K562) and acute myeloid leukemia (KG1) cells (1×10^6) were injected intraperitoneally in immune-compromised mice. Engraftment was confirmed by complete blood counts, presence of anemia, and clinical assessment of animal behavior.
The mice (total n=120 for each model respectively) were randomized into four (n=30/group) treatment groups. Each treatment regimen was administered in a four week cycle with three weeks of treatment, one week off: • 1. Untreated (control) • 2. Coenzyme Q10 (4%, administered at 75 mg/kg, once/day by continuous infusion) • 3. Chemotherapy (cytarabine/AraC 25 mg/kg, 5×/week; and adriamycin/daunorubicin 5 mg/kg; 1×/wk) • 4. Coenzyme Q10 (4%, administered at 75 mg/kg, once/day by continuous infusion)+chemotherapy (cytarabine/AraC 25 mg/kg, 5×/week; and adriamycin/daunorubicin 5 mg/kg; 1×/wk)
All dosings were intravenous and followed a protocol of 3 week treatment followed by 1 week rest. Leukemia was monitored by pallor and blood smears, and hone marrow smears were performed post-mortem for analysis using Wright's stain. Survival results from the study of mice with acute erythroleukemia are show in FIG. 5. Day 1 is the first day of treatment with coenzyme Q10 and/or chemotherapy.

The test system of data set [2] is LnCaP human prostate adenocarcinoma cells. Put plainly: Prostate cancer (LnCaP) mouse model, survival. The format is in vivo, immunocompromised mice. How it is done: The observed improvement in animal cohorts administered coenzyme Q10 as a continuous infusion was repeated in other animal models of cancer. For example. […] LnCaP human prostate adenocarcinoma cells were injected into immunocompromised mice. Coenzyme Q10 was administered using two different dosing regimens. One cohort was administered a total dose of 75 mg/kg body weight per day by dosing 25 mg/kg body weight every 8 hours (multiple bolus regimen). In a second cohort, an infusion pump was surgically installed in the animals to facilitate continuous infusion of coenzyme Q10 at a total dose of 75 mg/kg body weight per day. Treatment was continued throughout the entire duration of the study.

The test system of the next data set is solid tumors. Put plainly: Phase 1 study, 144-hour (6 day) continuous infusion. The settings on record: monotherapy and combination therapy. The format is in vivo, human. How it is done: A phase 1 clinical trial evaluating a 144-hour (6 day) continuous infusion of coenzyme Q10 for treatment of solid tumors is earned out. Coenzyme Q10 is administered as a monotherapy (Arm 1) or in combination with chemotherapy (Arm 2). […] The study is an open label, non-randomized dose-escalation study. The estimated enrollment is 45 patients for monotherapy (Arm 1), and up to 120 patients for combination therapy (Arm 2).
A dosing schedule of two 72-hour doses is used. For the first 72-hour dose, a loading dose over 1 hour is followed by infusion of the remainder of the dose over 71 hours at a lower rate. […]
A phase 1 clinical trial for treatment of solid tumors using coenzyme Q10 monotherapy and coenzyme Q10 in combination with chemotherapy is carried out. […] Dose limiting toxicities are assessed during Cycle 1.
Assessments of the antitumor activity of coenzyme Q10 are performed at the end of Cycle 2 and every 2 cycles thereafter using standard techniques such as computerized tomography (CT) or magnetic resonance imaging (MRI) for patients with measurable disease. Response is evaluated using Response Evaluation Criteria in Solid Tumors (RECIST) v1.1. […] Once a dose level of coenzyme Q10 monotherapy is evaluated and the CRC determines it safe to escalate to the next dose level, Cohort 1 of Treatment Arm 2 of coenzyme Q10 in combination with chemotherapy opens to accrual. […]

For another data set, the system named is AML or ALL. Description: Phase 1a/b study, 18 day continuous infusion in relapsed/refractory AML or ALL. As to conditions: at the end of the study.

Experimental for AML or ALL: This study is conducted in the inpatient setting for the first 10 patients enrolled on monotherapy to closely monitor the coagulation profile, gain experience and collect safety data during the first full cycle of therapy (21 days) and at least 30 days of post-dosing follow-up Platelet count and coagulation parameters are obtained every day in the inpatient setting. […] Treatment may continue in either the inpatient and/or outpatient setting for subsequent patients enrolled on study. Platelet count and coagulation are monitored at least 3 times/week in the outpatient setting and daily in the inpatient setting.
Each cycle of monotherapy is 21 days in length. […] Each cycle of combination therapy is 28 days in length. […] Patients who experience a DLT during cycle 1 of monotherapy or cycle 1 of combination therapy are discontinued.
On Day 1 of each cycle (i.e., Monday) the dose consists of an accelerated rate of infusion of 25% of the total dose volume over 1 hour with the remaining 75% of the dose volume infused over 23 hours. Subsequent daily doses (Days 2 through 18) are infused uniformly over 24 hours (no accelerated rate in the first hour). […] The principal investigator will consult with the Medical Monitor and the Chair of the DSMB to determine the appropriate dose level for each patient.

As for coenzyme Q10, the survival result in data set [1] (coenzyme Q10 75 mg/kg/day continuous infusion + chemotherapy (cytarabine + daunorubicin) vs other groups incl. chemotherapy alone, p<0.00001) is reported as “significant increase in survival”; in data set [1] (coenzyme Q10 alone (4%, 75 mg/kg once/day by continuous infusion) vs chemotherapy alone), “relatively similar survival compared to chemotherapy alone”. For the same substance, the survival rate result in data set [2] (continuous infusion 75 mg/kg body weight per day vs multiple bolus regimen) is “even higher survival rate”; in data set [2] (multiple bolus regimen, total 75 mg/kg body weight per day (25 mg/kg every 8 hours)), “higher survival rate than the untreated control”. The “clinical and/or radiographic responses” value with solid tumors (at least some patients) is recorded as “Clinical and/or radiographic responses are seen”. Moreover, the safety and tolerability result with solid tumors (six day continuous infusion) is “safe and well tolerated”. For the same substance, the “outcomes by standard criteria” value with AML or ALL (e.g., decreased tumor burden) is given as “clinically relevant outcomes”. Besides, the “adverse events with increased infusion duration” value in the data set with AML or ALL (vs four hour infusion at higher rate) is listed as “decrease adverse events”.
